Data as given in patent US8669378B2, “Process for synthesizing epicconone analogs” (Universite de Rouen, priority 2009, dated 2014).

What was measured:
Assay type in all cases: physicochemical
[1] = Absorbance of the adducts with butylamine in acetonitrile; settings: Bioconjugated molecule (BuNH2) in CH3CN; for λ UV (nm), second maximum: longer-wavelength absorption maximum, used for excitation; for λ UV (nm), first maximum: shorter-wavelength absorption maximum
Method: (§1) Apparatus: • Acetonitrile: VWR HPLC quality • Micropipette: 5 μl, 10 μl, 200 μl, 1000 μl, • Eppendorf: Safe lock tube PCR • UV cuvette: Varian-Quartz 10 mm thick • Fluorescence cuvette: Hellma-Quartz 10 mm thick • Vortex: Bender & Hobein-Genie 2 • Centrifuge: Baky Bug • Absorbance spectrophotometer: Varian-Cary 50 scan • Fluorescence spectrophotometer: Varian-Cary Eclipse • Thermostated bath: Varian-Cary single cell peltier accessory Stock Solution:
(§2) Approximately exactly 1 to 2 mg of compound Ia-Io are weighed out in a 1.5 mL Eppendorf tube. The stock solutions are then prepared by adding exactly 1 mL of acetonitrile and the Eppendorf tubes are then stored protected from light.
30 μl of stock solution are placed in a 1.5 mL Eppendorf tube. At room temperature, 10 μl (or 30 μl in the case of Ik) of a 0.15 M solution of butylamine/acetonitrile are added and the medium is stirred by vortex and then centrifuged. After diluting to 1 mL by adding 960 μl of acetonitrile (or 940 μl in the case of Ik), the clear solution is transferred into a UV cuvette and then made up to 2 mL with acetonitrile. The analysis is then performed after producing a “blank” spectrum with a pure acetonitrile solution.

[2] = Fluorescence of the adducts with butylamine in acetonitrile; parameters: Δ Stokes: unit not given here; settings: Bioconjugated molecule (BuNH2) in CH3CN; for Δ Stokes: emission minus excitation wavelength; for λ fluo (λ excitation) (nm): excitation at maximum-absorption wavelength; for Intensity normalized to 50 μM: fluorescence intensity
Method: as §1, §2
Two protocols were implemented for the fluorescence tests. • For compounds Ii-Ik: 125 μL of the preceding solution (absorbance solution) are diluted to 1.25 mL by adding 1125 μl of acetonitrile to a fluorescence cuvette. The analysis is then performed on the fluorescence spectrophotometer by excitation at the respective maximum-absorption wavelengths. • For compounds Ia-Ih and Il-Io: 1250 μl of the preceding solution (absorbance) are placed in a fluorescence cuvette. The analysis is then performed on the fluorescence spectrophotometer by excitation at the respective maximum-absorption wavelengths.

[3] = Photobleaching of stained standard proteins in gel under UV transilluminator; settings: protein-stained gel, first-order exponential decay fit, deduced from FIG. 1
Method: The compounds were dissolved at 10 mg/mL in DMSO. The stock solutions obtained were diluted to 1 mg/mL in water and divided into 100 μL aliquots for storage. All the products and aliquots were stored at −80° C.
Standard proteins (SDS labeling kit-low molecular weight sold by GE, 17-0446-01) were diluted in an LDS buffer (250 μL Invitrogen 4×LDS buffer, 100 μL of 1 M DDT, 650 μL of water) to create serial dilutions ranging from 128 ng/STI band to 125 pg/STI band.
5 μL of each protein solution were loaded onto NuPAGE® Novex® 12% bis-tris gels (1.0 mm thick, 12 wells, Invitrogen NP0342BOX). The gels were subjected to a current of 150 V for approximately 65 minutes using MES buffer (50 mM MES, 50 mM tris, 1 mM EDTA, 0.1% SDS, pH 7.3) so that the buffer front arrives just up to the gel. After eluting the dye, the gels were fixed for 1 to 17 hours (100 mL of fixing solution with 15% EtOH (v/v) and 1% citric acid) in individual lanes. The fixing solution used was replaced with fresh solution one hour after staining. The gels were stained for 1 hour in 50 mL of sodium borate buffer at 100 mM (pH 10.9) containing either […] of LavaPurple gel dye (Fluorotechnics; LP-011005) or one of the test compounds (50 μL for a 1 mg/mL solution). The gels were treated with 100 mL of 15% ethanol and then washed with 100 mL of fixing solution for 30 minutes.
Imaging was performed using a Typhoon Trio imager (excitation: 532 nm, emission filter: 610BP30, 540 PMT, resolution: 100 μm) using a normal sensitivity. The recorded image corresponds to the scan at time zero. The gels were then placed in a UV transilluminator for 60, 146, 240, 330, 630 and 990 seconds (total exposure time), a Typhoon scanner image being recorded between each exposure. The volumes of the bands were analyzed using the Image-Quant TL software, and all the band volumes were normalized with phosphorylase B. The photobleaching was analyzed by graphically representing the band volumes as a function of the exposure time (GraphPad Prism v4 software) and by fitting the curve to a first-order exponential decay to determine a pseudofirst-order rate constant.
FIG. 1 represents the decrease of the normalized residual signal of compounds (Ii), (Ij), (Ik), (In) and (Io) according to the invention and of epicocconone.
From this FIGURE, the half-life times of the compounds may be deduced: […]

SMILES	λ UV (nm), second maximum [1]	λ UV (nm), first maximum [1]	Δ Stokes [2]	λ fluo (λ excitation) (nm) [2]	Intensity normalized to 50 μM [2]	Half-life time [3]
CC1CC2=CC3=C(C(=O)c4ccccc4)C(=O)OC3(C)C(=O)C2=CO1 (centres unmarked) [Ia, 3-benzoyl-6,9a-dimethyl-5,6-dihydro-9aH-furo[3,2-g]isochromene-2,9-dione]	472 nm	351 nm	113	585 nm	98	
COc1ccc(C(=O)C2=C3C=C4CC(C)OC=C4C(=O)C3(C)OC2=O)cc1 (centres unmarked) [Ib, 3-(4-methoxybenzoyl)-6,9a-dimethyl-5,6-dihydro-9aH-furo[3,2-g]isochromene-2,9-dione]	452 nm	351 nm	134	586 nm	205	
CC1CC2=CC3=C(C(=O)c4ccco4)C(=O)OC3(C)C(=O)C2=CO1 (centres unmarked) [Ic, 3-(furan-2-carbonyl)-6,9a-dimethyl-5,6-dihydro-9aH-furo[3,2-g]isochromene-2,9-dione]	465 nm	352 nm	128	593 nm	193	
CC1CC2=CC3=C(C(=O)c4ccc5ccccc5c4)C(=O)OC3(C)C(=O)C2=CO1 (centres unmarked) [Id, 3-(2-naphthoyl)-6,9a-dimethyl-5,6-dihydro-9aH-furo[3,2-g]isochromene-2,9-dione]	464 nm	351 nm	106	570 nm	173	
COCCOCCOc1ccc(C(=O)C2=C3C=C4CC(C)OC=C4C(=O)C3(C)OC2=O)cc1 (centres unmarked) [Ie, 3-(4-(2-(2-methoxyethoxy)ethoxy)benzoyl)-6,9a-dimethyl-5,6-dihydro-9aH-furo[3,2-g]isochromene-2,9-dione]	453 nm	349 nm	137	590 nm	120	
COc1ccccc1C(=O)C1=C2C=C3CC(C)OC=C3C(=O)C2(C)OC1=O (centres unmarked) [If, 3-(2-methoxybenzoyl)-6,9a-dimethyl-5,6-dihydro-9aH-furo[3,2-g]isochromene-2,9-dione]	469 nm	351 nm	120	589 nm	147	
CC1CC2=CC3=C(C(=O)c4ccccc4O)C(=O)OC3(C)C(=O)C2=CO1 (centres unmarked) [Ig, 3-(2-hydroxybenzoyl)-6,9a-dimethyl-5,6-dihydro-9aH-furo[3,2-g]isochromene-2,9-dione]	463 nm	350 nm	134	597 nm	32	
COc1ccc(C(=O)C2=C3C=C4CC(C)(C)OC=C4C(=O)C3(C)OC2=O)cc1 (centres unmarked) [Ih, 3-(4-methoxybenzoyl)-6,6,9a-trimethyl-5,6-dihydro-9aH-furo[3,2-g]isochromene-2,9-dione]	460 nm	354 nm	130	590 nm	155	
COc1ccc(/C(O)=C/C(=O)C2=C3C=C4CC(C)OC=C4C(=O)C3(C)OC2=O)cc1 (centres unmarked) [Ii, (Z)-3-(3-hydroxy-3-(4-methoxyphenyl)acryloyl)-6,9a-dimethyl-5,6-dihydro-9aH-furo[3,2-g]isochromene-2,9-dione]	497 nm	366 nm	99	596 nm	3020	18.3 min
COc1ccc(/C(O)=C/C(=O)C2=C3C=C4CC(C)(C)OC=C4C(=O)C3(C)OC2=O)cc1 (centres unmarked) [Ij, (Z)-3-(3-hydroxy-3-(4-methoxyphenyl)acryloyl)-6,6,9a-trimethyl-5,6-dihydro-9aH-furo[3,2-g]isochromene-2,9-dione]	505 nm	366 nm	98	603 nm	3988	6.6 min
CC1(C)CC2=CC3=C(C(=O)/C=C(\O)c4ccccc4)C(=O)OC3(C)C(=O)C2=CO1 (centres unmarked) [Ik, (Z)-3-(3-hydroxy-3-phenylacryloyl)-6,6,9a-trimethyl-5,6-dihydro-9aH-furo[3,2-g]isochromene-2,9-dione]	512 nm	365 nm	94	606 nm	4157	22.4 min
COc1ccc(C(=O)C(C)C(=O)C2=C3C=C4CC(C)(C)OC=C4C(=O)C3(C)OC2=O)cc1 (centres unmarked) [Il, 3-(3-(4-methoxyphenyl)-2-methyl-3-oxopropanoyl)-6,6,9a-trimethyl-5,6-dihydro-9aH-furo[3,2-g]isochromene-2,9-dione]	498 nm	350 nm	90	588 nm	264	
CC(C(=O)C1=C2C=C3CC(C)(C)OC=C3C(=O)C2(C)OC1=O)C(=O)c1ccccc1 (centres unmarked) [Im, 6,6,9a-trimethyl-3-(2-methyl-3-oxo-3-phenylpropanoyl)-5,6-dihydro-9aH-furo[3,2-g]isochromene-2,9-dione]	489 nm	351 nm	102	591 nm	202	
CC1(C)CC2=CC3=C(/C(O)=C/C(=O)c4ccc(Cl)nc4)C(=O)OC3(C)C(=O)C2=CO1 (centres unmarked) [In, 3-[3-(6-chloro-pyridin-3-yl)-1-hydroxy-3-oxopropenyl]-6,6,9a-trimethyl-5,6-dihydro-9aH-furo[3,2-g]isochromene-2,9-dione]	525 nm	363 nm	87	612 nm	2764	33.1 min
CC1(C)CC2=CC3=C(C(=O)/C=C(\O)c4ccc5ccccc5c4)C(=O)OC3(C)C(=O)C2=CO1 (centres unmarked) [Io, 3-(1-hydroxy-3-naphtalen-2-yl-3-oxopropenyl)-6,6,9a-trimethyl-5,6-dihydro-9aH-furo[3,2-g]isochromene-2,9-dione]	520 nm	364 nm	89	609 nm	4320	44.7 min
